The text below walks through data of ChEMBL document CHEMBL1146931, “Inhibitors of VEGF receptors-1 and -2 based on the 2-((pyridin-4-yl)ethyl)pyridine template” (Bioorg Med Chem Lett, 2006).

By IC50 is commonly meant the concentration at which inhibition is half-maximal. In general, Ki refers to a measure of affinity in units of concentration, obtained from inhibition or displacement.

Bounds are passed on as bounds.

In data set [1] the test system is Caco-2. Description: Intrinsic permeability in Caco-2 cells. To be noted: human.
The target in data set [2] is T1, Vascular endothelial growth factor receptor 2 (Homo sapiens, UniProt P35968). Description: Inhibition of VEGFR2 phosphorylation in HEK293 cells by cell-based ELISA. For orientation: ELISA stands for enzyme-linked immunosorbent assay.
T1 sequence (P35968 whole entry): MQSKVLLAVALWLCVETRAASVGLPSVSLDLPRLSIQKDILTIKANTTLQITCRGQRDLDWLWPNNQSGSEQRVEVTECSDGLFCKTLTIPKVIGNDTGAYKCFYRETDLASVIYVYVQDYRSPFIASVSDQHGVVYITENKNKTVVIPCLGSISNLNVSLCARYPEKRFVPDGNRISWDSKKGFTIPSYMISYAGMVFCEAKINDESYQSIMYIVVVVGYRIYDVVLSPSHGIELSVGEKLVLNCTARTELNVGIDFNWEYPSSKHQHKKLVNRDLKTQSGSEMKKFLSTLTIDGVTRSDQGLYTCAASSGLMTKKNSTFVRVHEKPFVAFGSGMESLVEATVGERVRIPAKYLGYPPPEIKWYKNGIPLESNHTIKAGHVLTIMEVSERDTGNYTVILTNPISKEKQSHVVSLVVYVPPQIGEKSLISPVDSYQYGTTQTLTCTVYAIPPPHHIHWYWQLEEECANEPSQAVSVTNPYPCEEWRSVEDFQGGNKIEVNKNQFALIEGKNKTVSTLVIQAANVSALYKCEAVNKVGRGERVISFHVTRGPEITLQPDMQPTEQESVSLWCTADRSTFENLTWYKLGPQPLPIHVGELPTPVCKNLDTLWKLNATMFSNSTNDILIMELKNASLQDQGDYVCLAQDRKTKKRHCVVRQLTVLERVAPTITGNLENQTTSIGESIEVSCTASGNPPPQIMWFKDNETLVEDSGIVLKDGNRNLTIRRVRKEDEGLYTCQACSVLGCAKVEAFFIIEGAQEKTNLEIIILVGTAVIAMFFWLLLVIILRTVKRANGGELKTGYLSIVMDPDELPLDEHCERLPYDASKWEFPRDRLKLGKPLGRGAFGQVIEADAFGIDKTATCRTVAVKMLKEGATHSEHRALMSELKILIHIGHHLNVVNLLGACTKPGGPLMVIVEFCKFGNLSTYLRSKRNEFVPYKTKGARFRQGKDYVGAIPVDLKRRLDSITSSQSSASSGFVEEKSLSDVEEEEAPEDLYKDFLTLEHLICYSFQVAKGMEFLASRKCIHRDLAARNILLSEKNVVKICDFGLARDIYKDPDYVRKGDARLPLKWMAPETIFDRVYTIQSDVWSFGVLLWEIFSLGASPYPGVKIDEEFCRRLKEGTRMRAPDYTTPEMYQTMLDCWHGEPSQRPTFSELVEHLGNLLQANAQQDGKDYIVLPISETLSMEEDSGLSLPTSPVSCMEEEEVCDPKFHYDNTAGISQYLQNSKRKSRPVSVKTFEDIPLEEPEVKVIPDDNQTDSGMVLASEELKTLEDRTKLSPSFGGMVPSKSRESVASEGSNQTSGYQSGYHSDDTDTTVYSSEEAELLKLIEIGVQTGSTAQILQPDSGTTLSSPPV
The target in data set [3] is T1, Vascular endothelial growth factor receptor 2.
Description: Inhibition of VEGFR2 phosphorylation in presence of 2 uM ATP by HTRF assay
Data set [4] has as its target Vascular endothelial growth factor receptor 1 (Homo sapiens, UniProt P17948).
Description: Inhibition of VEGFR1 phosphorylation in presence of 2 uM ATP by HTRF assay
Data set [5] deals with T1, Vascular endothelial growth factor receptor 2. Description: Binding affinity to VEGFR2 at 0.043 uM.
Data set [6] shares this target. Description: Binding affinity to VEGFR2 at 0.031 uM.
Data set [7] shares this target. Description: Binding affinity to VEGFR2 at 0.058 uM.

Sequence of Vascular endothelial growth factor receptor 1 (P17948 whole entry): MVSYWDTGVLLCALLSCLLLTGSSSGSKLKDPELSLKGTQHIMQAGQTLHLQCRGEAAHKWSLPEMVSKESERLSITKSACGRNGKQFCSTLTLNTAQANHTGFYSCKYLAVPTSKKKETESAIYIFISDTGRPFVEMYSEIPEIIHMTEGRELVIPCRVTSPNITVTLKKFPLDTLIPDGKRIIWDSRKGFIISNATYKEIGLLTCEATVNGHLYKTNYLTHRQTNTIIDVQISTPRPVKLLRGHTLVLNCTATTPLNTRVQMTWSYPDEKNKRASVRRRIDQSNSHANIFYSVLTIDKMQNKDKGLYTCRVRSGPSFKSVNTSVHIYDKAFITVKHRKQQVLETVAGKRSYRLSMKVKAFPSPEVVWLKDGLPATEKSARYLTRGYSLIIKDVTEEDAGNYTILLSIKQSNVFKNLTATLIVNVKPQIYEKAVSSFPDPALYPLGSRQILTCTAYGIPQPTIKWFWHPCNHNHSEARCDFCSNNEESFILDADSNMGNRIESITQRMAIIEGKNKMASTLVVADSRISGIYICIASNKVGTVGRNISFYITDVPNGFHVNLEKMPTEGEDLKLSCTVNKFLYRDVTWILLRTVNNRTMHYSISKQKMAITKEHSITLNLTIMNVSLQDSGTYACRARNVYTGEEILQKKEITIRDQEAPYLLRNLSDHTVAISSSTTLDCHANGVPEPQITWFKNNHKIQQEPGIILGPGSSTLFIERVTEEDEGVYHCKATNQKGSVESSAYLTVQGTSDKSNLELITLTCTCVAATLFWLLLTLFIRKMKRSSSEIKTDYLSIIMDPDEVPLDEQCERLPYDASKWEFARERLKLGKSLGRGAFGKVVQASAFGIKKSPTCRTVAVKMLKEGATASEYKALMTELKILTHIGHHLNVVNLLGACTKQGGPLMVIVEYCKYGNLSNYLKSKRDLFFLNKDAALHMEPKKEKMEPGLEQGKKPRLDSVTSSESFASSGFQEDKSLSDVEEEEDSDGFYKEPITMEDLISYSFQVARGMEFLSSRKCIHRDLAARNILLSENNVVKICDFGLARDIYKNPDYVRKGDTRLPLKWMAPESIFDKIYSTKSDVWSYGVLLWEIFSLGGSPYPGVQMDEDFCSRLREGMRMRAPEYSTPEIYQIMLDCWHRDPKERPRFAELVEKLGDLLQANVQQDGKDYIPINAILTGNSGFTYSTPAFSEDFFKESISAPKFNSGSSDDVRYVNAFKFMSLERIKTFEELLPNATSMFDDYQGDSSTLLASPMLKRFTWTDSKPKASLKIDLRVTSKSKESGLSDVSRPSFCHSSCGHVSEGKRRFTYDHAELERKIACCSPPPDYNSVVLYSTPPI

As for `O=C(Nc1cnc2ccccc2c1)c1ccccc1NCc1ccncc1`, the Pm in data set [1] is reported as 17.3 10^-5 cm/min.
With `Cc1cccc(Nc2nnc(-c3cccnc3CCc3ccncc3)o2)c1`, the IC50 in data set [2] (read-out: IC50) came out at 2140 nM; in data set [3], 770 nM; in data set [4], 1070 nM.
On the same counts, the results for `Clc1ccc(Nc2nnc(-c3cccnc3CCc3ccncc3)o2)cc1Cl` are 94 nM, 79 nM and 270 nM.
As to `CC(C)(C)c1ccc(Nc2nnc(-c3cc4ccccc4nc3CCc3ccncc3)o2)cc1`, the IC50 in data set [3] and in data set [4] was greater than 10000 nM in each case.
Take `CC(C)(C)c1ccc(Nc2nnc(-c3ccncc3CCc3ccncc3)o2)cc1`: the IC50 in data set [2] (read-out: IC50) stood at 320 nM; in data set [3], 190 nM; in data set [4] it was 220 nM.
On the same counts, the results for `COc1cccc(Nc2nnc(-c3cccnc3CCc3ccncc3)o2)c1` are 290 nM, 170 nM and 500 nM.
For `FC(F)(F)c1ccc(Nc2nnc(-c3cnccc3CCc3ccncc3)o2)cc1`, in that order: 740 nM, 440 nM and 670 nM.
On to `CC(C)(C)c1ccc(Nc2nnc(-c3cccnc3CCc3ccncc3)o2)cc1`, for which the IC50 was 63 nM in data set [2] (read-out: IC50), 43 nM in data set [3] and 770 nM in data set [4]. Further, the Ki in data set [5] is 130 nM.
Take `FC(F)(F)c1cccc(Nc2nnc(-c3cnccc3CCc3ccncc3)o2)c1`: the figures for the IC50 in data set [2] (read-out: IC50), in data set [3] and in data set [4] were 2540 nM, 720 nM and 1220 nM, respectively.
In the case of `FC(F)(Cl)Oc1ccc(Nc2nnc(-c3cccnc3CCc3ccncc3)o2)cc1`, the IC50 is 44 nM in data set [2] (read-out: IC50), 31 nM in data set [3] and 730 nM in data set [4]. For the same molecule, the Ki in data set [6] came to 100 nM.
With `FC(F)(Cl)Oc1ccc(Nc2nnc(-c3ccncc3CCc3ccncc3)o2)cc1`, the IC50 was 530 nM in data set [2] (read-out: IC50), 220 nM in data set [3] and 810 nM in data set [4].
For `FC(F)(F)Oc1cccc(Nc2nnc(-c3ccncc3CCc3ccncc3)o2)c1`, in that order: 860 nM, 470 nM and 710 nM.
Consider `FC(F)(F)c1cccc(Nc2nnc(-c3cccnc3CCc3cccc4ncccc34)o2)c1`, for which the figures for the IC50 in data set [2] (read-out: IC50), in data set [3] and in data set [4] were greater than 10000 nM, 5640 nM and greater than 10000 nM, respectively.
Consider `Cc1ccccc1Nc1nnc(-c2cccnc2CCc2ccncc2)o1`, for which the IC50 in data set [3] and in data set [4] was greater than 10000 nM throughout.
As to `FC(F)(F)c1cccc(Nc2nnc(-c3cc4ccccc4nc3CCc3ccncc3)o2)c1`, the IC50 in data set [2] (read-out: IC50), in data set [3] and in data set [4] was greater than 10000 nM throughout.
With `FC(F)(F)c1cccc(Nc2nnc(-c3cccnc3CCc3ccc4ccccc4n3)o2)c1`, the IC50 in data set [2] (read-out: IC50), in data set [3] and in data set [4] was greater than 10000 nM each time.
Turning to `FC(F)(F)Oc1cccc(Nc2nnc(-c3cccnc3CCc3ccncc3)o2)c1`, the Pm in data set [1] was 42.6 10^-5 cm/min. For the same molecule, the IC50 in data set [2] (read-out: IC50) was determined as 110 nM; in data set [3] it was 69 nM; in data set [4], 260 nM.
Consider `c1cnc(CCc2ccncc2)c(-c2nnc(Nc3cnc4ccccc4c3)o2)c1`, for which the IC50 result in data set [2] (hek293) was “Not Active”; in data set [3], 380 nM; in data set [4], 440 nM.
Consider `c1ccc2ncc(Nc3nnc(-c4cc5ccccc5nc4CCc4ccncc4)o3)cc2c1`, for which the IC50 in data set [3] and in data set [4] was greater than 10000 nM in each case.
For the molecule `Fc1ccc(CCc2ncccc2-c2nnc(Nc3cccc(C(F)(F)F)c3)o2)cc1F`, the IC50 in data set [2] (read-out: IC50), in data set [3] and in data set [4] was greater than 10000 nM each time.
In the case of `FC(F)(F)Oc1ccc(Nc2nnc(-c3cnccc3CCc3ccncc3)o2)cc1`, the IC50 in data set [2] (read-out: IC50) turned out to be 510 nM; in data set [3], 360 nM; in data set [4] it was 470 nM.
For `FC(F)(F)c1cccc(Nc2nnc(-c3cccnc3CCc3ccccn3)o2)c1`, the IC50 in data set [2] (read-out: IC50), in data set [3] and in data set [4] was greater than 10000 nM in each case.
Turning to `CC(C)c1ccc(Nc2nnc(-c3ccncc3CCc3ccncc3)o2)cc1`, the concentration for half-maximal inhibition (IC50) amounted to 390 nM in data set [2] (read-out: IC50), 250 nM in data set [3] and 270 nM in data set [4].
Turning to `c1ccc(-c2ccc(Nc3nnc(-c4cccnc4CCc4ccncc4)o3)cc2)cc1`, the IC50 in data set [3] is 2630 nM; in data set [4], greater than 10000 nM.
As for `FC(F)(F)c1ccc(Nc2nnc(-c3ccncc3CCc3ccncc3)o2)cc1`, the IC50 amounted to 720 nM in data set [2] (read-out: IC50), 290 nM in data set [3] and 840 nM in data set [4].
On the same counts, the results for `CC(C)c1ccc(Nc2nnc(-c3cccnc3CCc3ccncc3)o2)cc1` are 75 nM, 51 nM and 620 nM.
For `FC(F)(F)c1cccc(Nc2nnc(-c3cccnc3CCc3cccnc3)o2)c1`, in that order: greater than 10000 nM, greater than 10000 nM and greater than 10000 nM.
For `FC(F)(F)Oc1ccc(Nc2nnc(-c3cccnc3CCc3ccncc3)o2)cc1`, in that order: 51 nM, 44 nM and 560 nM.
In the case of `FC(F)(F)c1ccc(Nc2nnc(-c3cccnc3CCc3ccncc3)o2)cc1`, the IC50 in data set [2] (read-out: IC50) came to 76 nM; in data set [3] it was 58 nM; in data set [4], 320 nM. The affinity in data set [7] corresponds to a Ki of 120 nM.
Turning to `FC(F)(F)Oc1cccc(Nc2nnc(-c3cnccc3CCc3ccncc3)o2)c1`, the figures for the IC50 in data set [2] (read-out: IC50), in data set [3] and in data set [4] were 760 nM, 550 nM and 740 nM, respectively.
On to `FC(F)(F)c1cccc(Nc2nnc(-c3ccncc3CCc3ccncc3)o2)c1`, for which the IC50 in data set [2] (read-out: IC50) is 1110 nM; in data set [3], 560 nM; in data set [4], 760 nM.
On to `FC(F)(Cl)Oc1ccc(Nc2nnc(-c3cnccc3CCc3ccncc3)o2)cc1`, for which the results for the IC50 in data set [2] (read-out: IC50), in data set [3] and in data set [4] were 590 nM, 440 nM and 530 nM, respectively.
On the same counts, the results for `Cc1ccc(Nc2nnc(-c3cccnc3CCc3ccncc3)o2)cc1C(F)(F)F` are 92 nM, 87 nM and 120 nM.
For the molecule `COc1ccc(Nc2nnc(-c3cccnc3CCc3ccncc3)o2)cc1OC`, the values for the IC50 in data set [2] (read-out: IC50), in data set [3] and in data set [4] were 110 nM, 67 nM and 180 nM, respectively.
On the same counts, the results for `FC(F)(F)c1cccc(Nc2nnc(-c3cccnc3CCc3ccc4[nH]ncc4c3)o2)c1` are greater than 10000 nM, 3870 nM and greater than 10000 nM.
In the case of `c1cnc(CCc2ccncc2)c(-c2nnc(NCc3ccc4c(c3)OCO4)o2)c1`, the Pm in data set [1] is on record as 23.6 10^-5 cm/min. Further, the results for the IC50 in data set [2] (read-out: IC50), in data set [3] and in data set [4] were 290 nM, 85 nM and 140 nM, respectively.
Consider `CC(C)(C)c1ccc(Nc2nnc(-c3cnccc3CCc3ccncc3)o2)cc1`, for which the IC50 was found to be 520 nM in data set [2] (read-out: IC50), 310 nM in data set [3] and 480 nM in data set [4].
Regarding `FC(F)(F)c1cccc(Nc2nnc(-c3cccnc3CCc3ccncc3)o2)c1`, the IC50 in data set [2] (read-out: IC50) stood at 110 nM; in data set [3], 64 nM; in data set [4], 220 nM.
Consider `FC(F)(F)Oc1ccc(Nc2nnc(-c3ccncc3CCc3ccncc3)o2)cc1`, for which the IC50 came out at 660 nM in data set [2] (read-out: IC50), 350 nM in data set [3] and 930 nM in data set [4].
